According to patent US20140099262A1, “ISOTOPICALLY LABELED CDP-CHOLINE AND USES THEREOF” (BRAIN WATCH LTD., priority 2011, published 2014):
Marks after values point to notes of the source that are not given here.

Experiments:
[1] = 31P T1 (spin-lattice relaxation) measurement of CDP-Choline phosphates by inversion recovery, in water and in plasma; type: physicochemical; details: 31P-NMR, 11.8T, confidence interval in brackets
Method: […] CDP-Choline were dissolved in 700 μL distilled water containing 10% deuterated water (85.7 mM solution) and stored in a 5 mm NMR tube in the freezer until assay.
Two units of expired plasma (about 250 cc per unit) from blood type AB and O were obtained frozen from the blood bank section at Hadassah Medical Center. Plasma was defrosted in the refrigerator overnight. 565 μl of plasma solution was mixed with 75 IA distilled water and transferred to a 5 mm NMR tube. The solution was kept on ice until NMR analysis the same day. 60 μl CDP-Choline was added to the solution and ^31P-NMR was recorded 37 s from the time CDP-Choline mixed with the plasma solutions in the NMR tube. The Ionic strength of the solution was 315.04 mM and the concentration of CDP-Choline 15.4 mM.
Spectra were obtained on an 11.8T high-resolution spectrometer (Varian, Palo Alto, Calif., USA) with a 5 mm direct multi-nuclei probe.
T1 measurements were performed for CDP-Choline in water and in plasma with the standard inversion recovery pulse sequence. The data were fitted to the standard inversion recovery equation using the MATLAB software (The MathWorks Inc., Natick, Mass., USA).

[2] = T1 of carbon-13 nuclei in the choline moiety of CDP-choline; type: physicochemical; details: 11.8 T, non-deuterated positions
From the text: Furthermore, it was unexpected to find that the relaxation time of the phosphorus nuclei is longer in plasma as compared to water.

[3] = intravenous administration; cited from earlier work

SMILES: C[N+](C)(C)CCOP(=O)(O)OP(=O)(O)OC[C@H]1O[C@@H](n2ccc(N)nc2=O)[C@H](O)[C@@H]1O [CDP-Choline, 5′-O-[hydroxy({hydroxy[2-(trimethylammonio)ethoxy]phosphoryl}oxy)phosphoryl]cytidine]
- T1 of phosphate P1 ([1]; H2O, 85.7 mM): 1.2 (0.9-1.5) s
- T1 of phosphate P2 ([1]; H2O, 85.7 mM): 1.4 (1.3-1.6) s
- T1 of phosphate P1 ([1]; plasma, 15.4 mM): 2.0 (1.9-2.0)* s
- T1 of phosphate P2 ([1]; plasma, 15.4 mM): 2.6 (2.4-2.8) s
- T1 of the carbon-13 nuclei in the choline moiety [2]: 2 to 3 s
- LD0 of CDP-Choline compared to choline [3]: about 40 fold
